In ChEMBL document CHEMBL5030560, “Berberine Molecular Recognition of the Parallel MYC G-Quadruplex in Solution” (J Med Chem, 2021):
Calls of active or inactive are those of the source. The rule behind the calls is not given here.

Experiments:
Format in all cases: nucleic-acid assay
Quadruplex DNA [1] = test: Binding affinity to human MycG4 DNA (unknown origin) assessed as compound-DNA complex at 2:1 ratio by mass spectroscopy
Quadruplex DNA [2] = test: Binding affinity to human MycG4 DNA (unknown origin) assessed as apparent dissociation constant by fluorescence based binding assay; details: read-out: Kd(app)
Quadruplex DNA [3] = test: Binding affinity to human MycG4 DNA (unknown origin) assessed as compound-DNA complex at 3:1 ratio by 1D NMR analysis

Activity (Quadruplex DNA [1]): Active
Kd (Quadruplex DNA [2]): 9.9 µM
Activity (Quadruplex DNA [3]): Active
SMILES: COc1ccc2cc3[n+](cc2c1OC)CCc1cc2c(cc1-3)OCO2 [BERBERINE]
